Source: PMC6199744, “Development of Chemical Proteomics for the Folateome and Analysis of the Kinetoplastid Folateome” (ACS Infectious Diseases, 2018)
Read-outs that look alike come from different tables or passages of the source.

Key:
Format in all cases: binding
[1] = target: T1, HeLa cell extract proteins (Homo sapiens, UniProt P00491)
T1 construct: endogenous in cells; host or cells: HeLa cell extract
T1 sequence (P00491 1-289): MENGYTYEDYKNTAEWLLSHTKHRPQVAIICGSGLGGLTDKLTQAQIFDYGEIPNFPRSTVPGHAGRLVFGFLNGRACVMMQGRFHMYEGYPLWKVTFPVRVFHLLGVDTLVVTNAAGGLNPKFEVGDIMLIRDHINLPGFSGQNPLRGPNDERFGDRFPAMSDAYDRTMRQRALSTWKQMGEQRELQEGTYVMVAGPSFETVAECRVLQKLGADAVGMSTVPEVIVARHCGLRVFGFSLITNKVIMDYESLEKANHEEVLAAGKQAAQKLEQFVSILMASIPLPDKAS

[2] = target: T2, HeLa cell extract proteins (Homo sapiens, UniProt Q53R41)
T2 construct: endogenous in cells; host or cells: HeLa cell extract
T2 sequence (Q53R41 1-847): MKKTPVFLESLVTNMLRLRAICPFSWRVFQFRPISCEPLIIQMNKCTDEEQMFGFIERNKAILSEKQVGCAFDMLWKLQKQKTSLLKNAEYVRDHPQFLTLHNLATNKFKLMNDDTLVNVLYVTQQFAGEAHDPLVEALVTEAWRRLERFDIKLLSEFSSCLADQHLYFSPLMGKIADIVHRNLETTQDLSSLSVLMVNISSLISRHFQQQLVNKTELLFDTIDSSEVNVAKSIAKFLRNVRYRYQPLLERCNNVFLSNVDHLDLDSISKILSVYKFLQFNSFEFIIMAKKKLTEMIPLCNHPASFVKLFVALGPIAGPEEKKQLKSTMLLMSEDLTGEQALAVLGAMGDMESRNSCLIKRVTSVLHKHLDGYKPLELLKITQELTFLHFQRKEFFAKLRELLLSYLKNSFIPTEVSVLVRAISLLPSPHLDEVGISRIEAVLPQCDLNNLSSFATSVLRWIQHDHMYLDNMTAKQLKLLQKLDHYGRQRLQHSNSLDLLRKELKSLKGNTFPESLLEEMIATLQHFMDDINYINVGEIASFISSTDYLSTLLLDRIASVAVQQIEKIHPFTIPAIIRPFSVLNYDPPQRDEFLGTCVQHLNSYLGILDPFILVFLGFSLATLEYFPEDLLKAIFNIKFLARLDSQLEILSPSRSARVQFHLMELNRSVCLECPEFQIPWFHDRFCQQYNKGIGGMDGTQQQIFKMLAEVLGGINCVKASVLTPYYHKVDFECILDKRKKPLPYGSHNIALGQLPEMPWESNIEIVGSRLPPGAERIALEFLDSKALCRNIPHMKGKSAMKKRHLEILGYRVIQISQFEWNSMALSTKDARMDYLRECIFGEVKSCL

[3] = target: T3, HeLa cell extract proteins (Homo sapiens, UniProt P57678)
T3 construct: endogenous in cells; host or cells: HeLa cell extract
T3 sequence (P57678 1-1058): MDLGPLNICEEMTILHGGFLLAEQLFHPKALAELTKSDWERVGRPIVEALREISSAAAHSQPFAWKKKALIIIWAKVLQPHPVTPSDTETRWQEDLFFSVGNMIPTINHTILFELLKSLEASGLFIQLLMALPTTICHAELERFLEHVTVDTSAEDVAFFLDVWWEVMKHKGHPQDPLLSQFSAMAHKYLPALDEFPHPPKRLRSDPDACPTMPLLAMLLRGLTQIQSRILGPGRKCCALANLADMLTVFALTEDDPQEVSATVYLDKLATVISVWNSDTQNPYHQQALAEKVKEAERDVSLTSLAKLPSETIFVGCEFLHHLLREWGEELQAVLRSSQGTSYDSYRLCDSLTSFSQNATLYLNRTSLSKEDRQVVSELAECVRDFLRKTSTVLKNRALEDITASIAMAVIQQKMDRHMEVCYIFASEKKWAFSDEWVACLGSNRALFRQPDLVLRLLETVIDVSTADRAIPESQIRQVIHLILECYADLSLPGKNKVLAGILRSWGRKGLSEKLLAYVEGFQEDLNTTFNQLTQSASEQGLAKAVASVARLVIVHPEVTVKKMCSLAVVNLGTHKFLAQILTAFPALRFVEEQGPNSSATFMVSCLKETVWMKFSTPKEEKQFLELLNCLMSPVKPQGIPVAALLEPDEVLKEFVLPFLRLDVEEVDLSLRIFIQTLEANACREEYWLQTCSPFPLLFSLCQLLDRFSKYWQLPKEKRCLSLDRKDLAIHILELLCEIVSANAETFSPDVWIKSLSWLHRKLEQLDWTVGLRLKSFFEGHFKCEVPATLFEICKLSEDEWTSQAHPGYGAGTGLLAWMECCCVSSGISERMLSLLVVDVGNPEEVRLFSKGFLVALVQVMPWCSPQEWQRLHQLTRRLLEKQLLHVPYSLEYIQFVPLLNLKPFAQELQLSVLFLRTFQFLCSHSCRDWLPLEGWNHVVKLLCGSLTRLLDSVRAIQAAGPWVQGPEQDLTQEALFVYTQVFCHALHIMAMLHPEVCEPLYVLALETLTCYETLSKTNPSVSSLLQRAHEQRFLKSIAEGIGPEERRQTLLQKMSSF

[4] = target: T4, HeLa cell extract proteins (Homo sapiens, UniProt Q13907)
T4 construct: endogenous in cells; host or cells: HeLa cell extract
T4 sequence (Q13907 whole entry): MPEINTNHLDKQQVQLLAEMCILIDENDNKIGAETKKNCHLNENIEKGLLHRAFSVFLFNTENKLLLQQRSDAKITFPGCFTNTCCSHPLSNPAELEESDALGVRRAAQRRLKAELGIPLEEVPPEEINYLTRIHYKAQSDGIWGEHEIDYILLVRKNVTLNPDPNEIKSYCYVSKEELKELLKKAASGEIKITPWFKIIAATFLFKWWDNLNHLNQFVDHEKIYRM

[5] = HeLa, protein IDI1 (ISOPENTENYL-DIPHOSPHATE DELTA ISOMERASE.)

SMILES	fold changes relative to vehicle control ([1]; protein NP, HeLa)	fold changes relative to vehicle control ([2]; HeLa, protein FASTKD1)	fold changes relative to vehicle control ([3]; HeLa, protein GEMIN4)	fold changes relative to vehicle control ([4]; HeLa, protein IDI1)	fold changes relative to vehicle control ([2]; captured protein FASTKD1, HeLa)	fold changes relative to vehicle control ([3]; captured protein GEMIN4, HeLa)	further results
Nc1nc2c(c(=O)[nH]1)N(C=O)C(CNc1ccc(C(=O)N[C@@H](CCC(=O)O)C(=O)O)cc1)CN2 (stereo partly shown) [LEU, leucovorin]	0.9	0.85	0.93	1.09	–	–	–
Nc1nc2[nH]cc(CCc3ccc(C(=O)N[C@@H](CCC(=O)O)C(=O)O)cc3)c2c(=O)[nH]1 [PTX, pemetrexed]	–	–	–	–	–	–	fold changes relative to vehicle control [1]: 0.89; fold changes relative to vehicle control [2]: 0.83; fold changes relative to vehicle control [3]: 0.94; fold changes relative to vehicle control [4]: 1.03
CCCCCCOc1ccc(Cc2cnc(N)nc2N)cc1 [compound 1]	1.16	–	–	–	0.96	0.88	fold changes relative to vehicle control [4, 5]: 1.5 fold
CCCCCCOc1cccc(Cc2cnc(N)nc2N)c1 [compound 2]	1.4	–	–	–	1.08	0.92	fold changes relative to vehicle control [4, 5]: 2.18 fold
Nc1nc2cccc(-c3ccccc3)c2n1Cc1ccc(Cl)c(Cl)c1 [compound 3]	0.96	–	–	–	0.98	1.02	fold changes relative to vehicle control ([4]; HeLa, protein IDI1 (ISOPENTENYL-D[…] ISOMERASE.)): 0.88 fold
NCCOCCOCC(=O)Nc1nc2ncc(CNc3ccc(C(=O)NC(CCC(=O)O)C(=O)O)cc3)nc2c(=O)[nH]1 (stereo not shown) [compound 6]	1.08	0.87	1.02	1.2	–	–	–
NCCCNc1ccc(C(=O)NC(CCC(=O)O)C(=O)O)cc1 (stereo not shown) [compound 7]	0.89	0.84	0.99	1.01	–	–	–
